The values below come from patent US20240139113A1, “LIPID NANOPARTICLE WITH TARGET INTEGRIN FUNCTION AND USES THEREOF” (priority 2022, published 2024).

Data set [1] deals with monkey kidney epithelial cells (Vero). The experiment in a line: Cell viability of normal cells (Vero), 3-day treatment. The class given is cell-based. The following applies: 3 days, FIG. 2A. From the text:
(§1) In this example, the effect of the lipid nanoparticle on the growth of normal cells is investigated.
(§2) Dox represents doxorubicin; Tetrac represents tetraiodothyroacetic acid.

Data set [2] has as its system human umbilical vein endothelial cells (HUVEC). As to the kind of experiment: Cell viability of normal cells (HUVEC), 3-day treatment. The following applies: 3 days, FIG. 2A. The class given is cell-based.
Source text: as §1, §2

For the molecule `O=C(O)Cc1cc(I)c(Oc2cc(I)c(O)c(I)c2)c(I)c1` [Tetrac, tetraiodothyroacetic acid], the “cell viability / growth of normal cells” value in data set [1] and in data set [2] was “do not affect the growth of normal cells” each time.
